Experimental findings from patent US20020193627A1, “Novel crystalline disodium pamidronate hydrate and process for preparing it” (priority 1999, published 2002) are described below.

The nature of data set [1]: Soft gelatine capsule storage stability by visual observation. Format: physicochemical. To be noted: soft gelatine capsules (125 mg); 24° C., 50% RH; 6 months. The method, then: Soft gelatine capsules(125 mg) were respectively prepared from the crystalline disodium pamidronates of example 2 and comparative example by a conventional soft capsule manufacturing method. The soft capsules were stored in chamber which is controlled a constant temperature and hymidity (24° C., 50% RH) for 6 months. The stabilities of the soft capsules were tested by visual observation for the changes of properties, colors or shapes.

A short description of data set [2]: Thermal Gravity Assay (TGA). Format: physicochemical. As to the method: In order to confirm the physical properties of 3˜4 hydrates prepared in the example 2, the lattice distances (d-values) and relative line sensitivities of X-ray diffraction patterns were measured on the conditions of step sizes 0.012 from 2 theta 5 to 2 theta 50, scan velocity 3.000 and time 2.000 by using Rigaku D/Max-IIIB X-ray Diffractometer (XRD). The test results were shown on FIG. 1a and FIG. 1b. Thermal Gravity Assay for 3˜4 hydrates (TGA data) was carried out by using TA Instruments Model 2950 TGA Thermal Analyzer (TGA). The lost weight of the 3˜4 hydrtes was measured by gradually raising the temperature of 10° C. per minute from room temperature to 500° C. The results were shown on FIG. 2.

For data set [3] the following is noted: for Stability Evaluation (Stable hydrate): form listed as stable. The method, then: (1) anhydrous disodium pamidronate, (2) disodium pamidronate 3˜4 hydrates prepared in the example 2(water contents 18.50%), (3) disodium pamidronate 5 hydrates (water contents 24.41%)
(1) 1.000 g 1.200 g of anhydrous disodium pamidronate was accurately weighed and 15 samples were prepared.
(2) 1.000 g -1.200 g of disodium pamidronate 3˜4 hydrates was accurately weighed and I; samples were prepared.
(3) 1.000 g-1.200 g of disodium pamidronate 5 hydrates was accurately weighed and 15 samples were prepared.
(4) The tests were carried out under the following conditions:
1) Temperature (T) and humidity (relative humidity: RH): i) 24° C., 50% RH, ii) 40° C., 0% RH, iii) 40° C., 75% RH […]
i) 1 week ii) 2 weeks, iii) 3 weeks, iv) 4 weeks. v) 5 weeks
(5) After the tests were carried out, each sample was dried under reduced pressurekbelow 5 mmHg) at 150° C. for 5 hours, weighed the lost weight and determined the water contents.
The values show water contents (%).

Read-outs that look alike come from different tables or passages of the source.

For `NCCC(O)(P(=O)([O-])O)P(=O)([O-])O.[Na+].[Na+]` [Example 2, crystalline disodium pamidronate 3˜4 hydrates], in data set [1], the “changes of properties, colors or shapes of soft capsules by visual observation” value was “No changes are observed”. In addition, the “temperature from which water loss begins (TGA)” value in data set [2] (10° C. per minute from room temperature to 500° C.) is 50 °C. For the same molecule, in data set [2] (till 221.11° C., 14.26%+3.845%, error of measurement ±3%), the “weight loss (TGA)” value was 18.105%. Moreover, the water contents in data set [3] (24° C., 50% RH, 1 week) is recorded as 18.19%; in data set [3] (24° C., 50% RH, 2 weeks), 18.03%; in data set [3] (24° C., 50% RH, 3 weeks), 18.04%; in data set [3] (24° C., 50% RH, 4 weeks), 18.31%; in data set [3] (24° C., 50% RH, 5 weeks) it was 18.28%; in data set [3] (40° C., 0% RH, 1 week), 17.12%. The water contents worked out at 17.20% in data set [3] (40° C., 0% RH, 2 weeks); 17.37% in data set [3] (40° C., 0% RH, 3 weeks); 17.10% in data set [3] (40° C., 0% RH, 4 weeks); 17.22% in data set [3] (40° C., 0% RH, 5 weeks); 17.20% in data set [3] (40° C., 75% RH, 1 week); 17.66% in data set [3] (40° C., 75% RH, 2 weeks). Moreover, the water contents turned out to be 17.45% in data set [3] (40° C., 75% RH, 3 weeks); 17.15% in data set [3] (40° C., 75% RH, 4 weeks); 17.26% in data set [3] (40° C., 75% RH, 5 weeks). Besides, the “Stability Evaluation (Stable hydrate)” value in data set [3] (24° C., 50% RH) is recorded as 3-4 hydrate; in data set [3] (40° C., 0% RH) it was 3-4 hydrate; in data set [3] (40° C., 75% RH), 3-4 hydrate. Besides, the “behaviour of water contents on storage” value in data set [3] (40° C. 0% RH) and in data set [3] (40° C. 75% RH) was “maintained stably” in each case. Further, in data set [3] (all storage conditions), the “overall stability among disodium pamidronate hydrates” value is recorded as “structurally the most stable”.
Turning to `NCCC(O)(P(=O)([O-])O)P(=O)([O-])O.[Na+].[Na+]` [comparative example, disodium 3-amino-1-hydroxypropane-1,1-diphosphonate], in data set [1], the “changes of properties, colors or shapes of soft capsules by visual observation” value was “changed in shapes (partly collapse by releasing water), colors and dewy phenomena on inner parts of the capsules”. Besides, the figures for the “behaviour of water contents on storage” value in data set [3] (24° C. 50% RH), in data set [3] (40° C. 0% RH) and in data set [3] (40° C. 75% RH) were “lost from 1 week”, “maintained stably” and “maintained stably”, respectively. Moreover, the water contents in data set [3] (24° C., 50% RH, 1 week) is given as 19.14%; in data set [3] (24° C., 50% RH, 2 weeks) it was 18.79%; in data set [3] (24° C., 50% RH, 3 weeks), 18.29%; in data set [3] (24° C., 50% RH, 4 weeks), 18.43%; in data set [3] (24° C., 50% RH, 5 weeks) it was 18.37%; in data set [3] (40° C., 0% RH, 1 week), 24.44%. Moreover, the water contents is given as 24.19% in data set [3] (40° C., 0% RH, 2 weeks); 23.52% in data set [3] (40° C., 0% RH, 3 weeks); 23.01% in data set [3] (40° C., 0% RH, 4 weeks); 22.21% in data set [3] (40° C., 0% RH, 5 weeks); 24.02% in data set [3] (40° C., 75% RH, 1 week); 24.43% in data set [3] (40° C., 75% RH, 2 weeks). The water contents in data set [3] (40° C., 75% RH, 3 weeks) is 24.35%; in data set [3] (40° C., 75% RH, 4 weeks) it was 23.65%; in data set [3] (40° C., 75% RH, 5 weeks) it was 23.55%. For the same molecule, the “Stability Evaluation (Stable hydrate)” value in data set [3] (40° C., 0% RH, listed as 5 hydrate) came out at 5 hydrate; in data set [3] (40° C., 75% RH, listed as 5 hydrate) it was 5 hydrate.
Consider anhydrous disodium pamidronate, for which the “behaviour of water contents on storage” value in data set [3] (24° C. 50% RH) is given as “absorbed water”; in data set [3] (24° C., 0% RH), “maintained stably”. For the same molecule, the entries for the “time after which converted to 3˜4 hydrates” value in data set [3] (24° C. 50% RH) and in data set [3] (40° C. 75% RH) were 4 weeks and 3 weeks, respectively. Besides, the water contents in data set [3] (24° C., 50% RH, 1 week) is 1.45%; in data set [3] (24° C., 50% RH, 2 weeks), 8.42%; in data set [3] (24° C., 50% RH, 3 weeks) it was 13.34%; in data set [3] (24° C., 50% RH, 4 weeks), 17.19%; in data set [3] (24° C., 50% RH, 5 weeks), 17.84%; in data set [3] (40° C., 0% RH, 1 week), 0.02%. Besides, the water contents is listed as 0.06% in data set [3] (40° C., 0% RH, 2 weeks); 0.05% in data set [3] (40° C., 0% RH, 3 weeks); 0.08% in data set [3] (40° C., 0% RH, 4 weeks); 0.10% in data set [3] (40° C., 0% RH, 5 weeks); 7.14% in data set [3] (40° C., 75% RH, 1 week); 14.39% in data set [3] (40° C., 75% RH, 2 weeks). Also, the water contents was determined as 18.20% in data set [3] (40° C., 75% RH, 3 weeks); 18.24% in data set [3] (40° C., 75% RH, 4 weeks); 18.22% in data set [3] (40° C., 75% RH, 5 weeks). The “Stability Evaluation (Stable hydrate)” value in data set [3] (40° C., 0% RH) was “anhydrous form”.
